Values quoted from earlier work in US10071072B2, “Method for treating neurotrauma” (N.V. Nutricia, priority 2011, dated 2018).

Test system: neurotrauma
Details: in vivo supply; King et al. J. Neurosci.

CC/C=C\C/C=C\C/C=C\CCCCCCCC(=O)O [α-linolenic acid]
neuroprotection in neurotrauma: neuroprotective
